From ChEMBL document CHEMBL1201862, “PubChem BioAssay data set” (2004)
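The compound was tested at five concentrations on cells cultured in 96-well plates, with a 48-hour exposure period. The concentration for 50% growth inhibition is given as GI50.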 Calls of active or inactive are those of the source. No stated cut-off is given here; in the data, active = GI50 up to about 1.1 µM and inactive = higher.

Columns and labels:
Assay in all cases: NCI-60 cell line screen, 48 h
[1] = tested on: SF-268
[2] = tested on: HCC 2998
[3] = tested on: HT-29
[4] = tested on: SK-OV-3
[5] = tested on: SNB-19
[6] = tested on: HOP-62
[7] = tested on: RPMI-8226
[8] = tested on: UO-31
[9] = tested on: SN12C
[10] = tested on: UACC-62
[11] = tested on: COLO 205
[12] = tested on: RXF 393
[13] = tested on: SNB-75
[14] = tested on: A549
[15] = tested on: SF-295
[16] = tested on: SW-620
[17] = tested on: A498

Measured: GI50

O=C1NC(O)n2c(=O)[nH]c(=O)n21 (centres undefined)
inactive: [1] > 100 µM | [2] > 100 µM | [3] > 100 µM | [4] > 100 µM | [5] > 100 µM | [6] > 100 µM | [7] > 100 µM | [8] > 100 µM | [9] > 100 µM | [10] > 100 µM | [11] > 100 µM | [12] > 100 µM | [13] > 100 µM | [14] > 100 µM | [15] > 100 µM | [16] > 100 µM

CCOC(=O)C(C[Si](C)(C)C)P(=O)(OCC)OCC (centres undefined)
inactive: [1] > 100 µM | [2] > 100 µM | [3] > 100 µM | [4] > 100 µM | [6] > 100 µM | [7] > 100 µM | [8] > 100 µM | [9] > 100 µM | [10] > 100 µM | [11] > 100 µM | [12] > 100 µM | [13] 38.5 µM | [14] > 100 µM | [15] > 100 µM | [16] > 100 µM

O=c1cc(-c2ccccc2)[nH]c2c(F)ccc(F)c12
inactive: [1] > 100 µM | [3] 33.5 µM | [4] > 100 µM | [6] 56 µM | [7] 31.1 µM | [8] 88.3 µM | [9] 63.5 µM | [10] 30.7 µM | [11] 48.1 µM | [12] 97.1 µM | [13] 15 µM | [14] 37.9 µM | [15] 33 µM | [16] 35.3 µM

NC1=NNC(=O)c2nnc3c(C(=O)O)cnn3c2S1
inactive: [1] > 100 µM | [3] > 100 µM | [4] > 100 µM | [5] > 100 µM | [6] > 100 µM | [7] > 100 µM | [8] > 100 µM | [9] > 100 µM | [10] > 100 µM | [11] > 100 µM | [12] > 100 µM | [13] 47.4 µM | [14] > 100 µM | [15] > 100 µM | [16] > 100 µM

COc1ccc(NC(=O)CC(=O)N2N=C(N(CCC#N)c3cccc(C)c3)CC2c2ccccc2)cc1 (centres undefined)
inactive: [1] > 100 µM | [2] > 100 µM | [3] > 100 µM | [4] > 100 µM | [5] > 100 µM | [6] > 100 µM | [7] > 100 µM | [8] > 100 µM | [9] > 100 µM | [10] > 100 µM | [11] > 100 µM | [12] > 100 µM | [13] > 100 µM | [14] > 100 µM | [15] > 100 µM | [16] > 100 µM

CC(=O)Nc1ccc(/C=C2\N=C(c3ccccc3)OC2=O)cc1
inactive: [1] > 100 µM | [2] 36.1 µM | [4] > 100 µM | [5] > 100 µM | [6] > 100 µM | [7] 48.8 µM | [8] > 100 µM | [9] 55 µM | [10] 27.2 µM | [11] > 100 µM | [12] 82.8 µM | [13] 64.9 µM | [14] > 100 µM | [15] 65.2 µM | [16] > 100 µM

COc1ccc(C(=O)C(c2ccc(OC)cc2)C2(O)C(=O)Nc3ccc([N+](=O)[O-])cc32)cc1 (centres undefined)
inactive: [1] > 100 µM | [3] > 100 µM | [4] > 100 µM | [17] 17.7 µM | [5] > 100 µM | [6] > 100 µM | [7] > 100 µM | [8] > 100 µM | [9] 12.1 µM | [10] > 100 µM | [11] > 100 µM | [12] > 100 µM | [13] 32.3 µM | [14] > 100 µM | [15] > 100 µM | [16] > 100 µM

CCOC(=O)/C=C/c1ccccn1
inactive: [1] > 100 µM | [2] > 100 µM | [3] > 100 µM | [4] > 100 µM | [17] > 100 µM | [6] > 100 µM | [7] > 100 µM | [8] > 100 µM | [9] > 100 µM | [10] > 100 µM | [11] > 100 µM | [13] > 100 µM | [14] > 100 µM | [15] > 100 µM | [16] > 100 µM

COc1ccc2c(c1)CCc1cnn(C3OC(COC(C)=O)C(OC(C)=O)C(OC(C)=O)C3OC(C)=O)c1-2 (centres undefined)
inactive: [1] > 100 µM | [2] > 100 µM | [3] 37.2 µM | [17] > 100 µM | [5] > 100 µM | [6] > 100 µM | [7] 16.7 µM | [9] > 100 µM | [10] 66.5 µM | [11] 84.7 µM | [13] 36.6 µM | [14] > 100 µM | [15] > 100 µM | [16] 18.4 µM

Clc1ccc(C2=NOC(C3CCCCC3)C2)cc1 (centres undefined)
inactive: [1] > 100 µM | [2] > 100 µM | [3] > 100 µM | [4] > 100 µM | [17] > 100 µM | [6] > 100 µM | [7] > 100 µM | [8] > 100 µM | [9] > 100 µM | [10] > 100 µM | [11] > 100 µM | [13] > 100 µM | [14] > 100 µM | [15] > 100 µM | [16] > 100 µM

CCOc1cc2c(cnc3c4cc(OC)c(OC)cc4ccc23)cc1OC
inactive: [1] > 100 µM | [2] > 100 µM | [3] > 100 µM | [4] > 100 µM | [17] > 100 µM | [5] > 100 µM | [6] > 100 µM | [7] > 100 µM | [8] > 100 µM | [9] > 100 µM | [10] > 100 µM | [11] > 100 µM | [13] > 100 µM | [14] > 100 µM | [15] > 100 µM | [16] > 100 µM

O=C(CP(=O)(O)O)c1cccs1
inactive: [1] > 100 µM | [2] > 100 µM | [3] > 100 µM | [4] > 100 µM | [17] > 100 µM | [5] > 100 µM | [6] > 100 µM | [7] > 100 µM | [8] > 100 µM | [9] > 100 µM | [10] > 100 µM | [11] > 100 µM | [13] > 100 µM | [14] > 100 µM | [15] > 100 µM | [16] > 100 µM

CC(=O)OCC(OC(C)=O)C(OC(C)=O)C(OC(C)=O)C(=O)CNn1c(-c2ccccc2)nc2ccc(Br)cc2c1=O (centres undefined)
inactive: [1] > 100 µM | [3] > 100 µM | [4] > 100 µM | [17] > 100 µM | [5] > 100 µM | [6] > 100 µM | [7] 64.9 µM | [8] > 100 µM | [9] > 100 µM | [10] 83.4 µM | [11] > 100 µM | [12] > 100 µM | [13] > 100 µM | [14] > 100 µM | [15] > 100 µM | [16] > 100 µM

NC(=S)N/N=C1/C(=O)N(c2ccccc2)C(=O)C1C(=O)Nc1ccccc1 (centres undefined)
inactive: [1] > 100 µM | [2] > 100 µM | [3] > 100 µM | [4] > 100 µM | [17] > 100 µM | [5] > 100 µM | [6] > 100 µM | [8] > 100 µM | [9] > 100 µM | [10] > 100 µM | [11] > 100 µM | [12] > 100 µM | [13] > 100 µM | [14] > 100 µM | [15] > 100 µM | [16] > 100 µM

CCCC(=O)CC(C)C(=O)C(=O)NC12CC3CC(CC(C3)C1)C2 (centres undefined)
inactive: [1] > 100 µM | [2] > 100 µM | [3] > 100 µM | [5] > 100 µM | [6] > 100 µM | [7] > 100 µM | [8] > 100 µM | [9] > 100 µM | [11] > 100 µM | [12] > 100 µM | [13] 97.5 µM | [14] > 100 µM | [15] > 100 µM | [16] > 100 µM

O=C1CCSC2=C1SCc1sccc12
inactive: [1] > 100 µM | [2] > 100 µM | [4] > 100 µM | [5] > 100 µM | [6] > 100 µM | [7] 79.3 µM | [8] > 100 µM | [9] > 100 µM | [10] > 100 µM | [11] > 100 µM | [12] > 100 µM | [13] 30.5 µM | [14] > 100 µM | [15] > 100 µM | [16] > 100 µM

O=C1CC(S(=O)(=O)O)C=C1Nc1cccc(Cl)c1 (centres undefined)
inactive: [1] > 100 µM | [2] > 100 µM | [3] > 100 µM | [4] > 100 µM | [17] > 100 µM | [5] > 100 µM | [6] > 100 µM | [8] > 100 µM | [9] > 100 µM | [10] > 100 µM | [11] > 100 µM | [12] > 100 µM | [13] > 100 µM | [14] > 100 µM | [15] > 100 µM | [16] > 100 µM

CN(N=O)C(=O)ON1C(=O)CCC1=O
inactive: [1] > 100 µM | [2] > 100 µM | [3] > 100 µM | [4] > 100 µM | [17] > 100 µM | [5] > 100 µM | [6] > 100 µM | [7] > 100 µM | [8] > 100 µM | [10] > 100 µM | [13] 54.1 µM | [14] > 100 µM | [15] > 10 µM | [16] > 100 µM
